Patent publication US11608335B2, “Somatostatin modulators and uses thereof” (CRINETICS PHARMACEUTICALS, INC., priority 2018, dated 2023)

The molecules below were run against human somatostatin receptor subtype 5 (Homo sapiens, UniProt P35346) (assay: cAMP assay for SST5R (inhibition of cAMP via human SST5 receptor)).
human somatostatin receptor subtype 5, sequence (P35346 whole entry): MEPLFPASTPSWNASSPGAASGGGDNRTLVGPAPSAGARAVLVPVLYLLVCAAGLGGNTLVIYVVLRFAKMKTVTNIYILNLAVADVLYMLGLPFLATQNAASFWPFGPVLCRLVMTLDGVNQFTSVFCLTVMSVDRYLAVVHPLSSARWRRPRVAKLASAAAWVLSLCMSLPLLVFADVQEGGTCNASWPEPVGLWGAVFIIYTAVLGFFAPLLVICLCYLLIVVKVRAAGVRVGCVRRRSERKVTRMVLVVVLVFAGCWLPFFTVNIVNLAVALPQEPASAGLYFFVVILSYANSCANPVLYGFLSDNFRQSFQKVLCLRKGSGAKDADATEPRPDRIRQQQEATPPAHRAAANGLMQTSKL
Description: cAMP Assay Protocol for SST5R:
The cells are cultured at 37° C., 5% CO2 and 95% humidity. […] The cells are incubated for 20 minutes at 37° C. […] The cells are treated with 50 μL of lysis buffer (HRTF cAMP kit, Cisbio) for 30 minutes and then the lysate is diluted to 250 μL with assay buffer. The lysate is transferred to 384-well plates and cAMP detection and visualization antibodies are added and incubated for 1-24 hours at room temperature. The time-resolved fluorescent signal is read with a Tecan M1000Pro multiplate reader. The intracellular cAMP concentrations are calculated by regression to a standard curve and are plotted vs. the concentration of the compounds of the invention and the EC50 of the compounds are calculated using standard methods. All data manipulations are in GraphPad Prism v6 or v7.
`N#Cc1cccc(-c2cncc(-c3nc4c(F)c(F)c(F)c(F)c4[nH]3)c2N2CC[C@H](N)C2)c1` [Compound 2-41, 3-{4-[(3S)-3-aminopyrrolidin-1-yl]-5-(4,5,6,7-tetrafluoro-1H-1,3-benzodiazol-2-yl)pyridin-3-yl}benzonitrile] gave an EC50 of 10 to 100 nM. `N#Cc1ccc2nc(-c3cncc(-c4cc(F)cc(Cl)c4)c3N3CC[C@H](N)C3)[nH]c2c1` [Compound 2-103, 2-{4-[(3S)-3-aminopyrrolidin-1-yl]-5-(3-chloro-5-fluorophenyl)pyridin-3-yl}-1H-1,3-benzodiazole-5-carbonitrile] was tested, and the EC50 was 10 to 100 nM. `NCC1CN(c2c(-c3cc(Cl)cc(C(F)(F)F)c3)cncc2-c2nc3cc(F)cc(F)c3[nH]2)C1` [Compound 1-40, 1-(1-{3-[3-chloro-5-(trifluoromethyl)phenyl]-5-(4,6-difluoro-1H-1,3-benzodiazol-2-yl)pyridin-4-yl}azetidin-3-yl)methanamine] gave an EC50 of 10 to 100 nM. `CS(=O)(=O)c1cc(F)cc(-c2cncc(-c3nc4cccc(F)c4[nH]3)c2N2CC[C@H](N)C2)c1` [Compound 2-92, (3S)-1-[3-(4-fluoro-1H-1,3-benzodiazol-2-yl)-5-(3-fluoro-5-methanesulfonylphenyl)pyridin-4-yl]pyrrolidin-3-amine] was tested, and the EC50 was 10 to 100 nM. In the case of `Cn1c(-c2cncc(-c3cccc(C#N)c3)c2N2CC[C@](C)(N)C2)nc2c(F)cccc21` [Compound 2-153, 3-{4-[(3S)-3-amino-3-methylpyrrolidin-1-yl]-5-(4-fluoro-1-methyl-1H-1,3-benzodiazol-2-yl)pyridin-3-yl}benzonitrile], the EC50 is reported as < 10 nM. `Cc1ccc(F)cc1-c1cncc(-c2nc3cc(F)cc(F)c3[nH]2)c1N1CC(CN)C1` [Compound 1-46, 1-{1-[3-(4,6-difluoro-1H-1,3-benzodiazol-2-yl)-5-(5-fluoro-2-methylphenyl)pyridin-4-yl]azetidin-3-yl}methanamine] was tested, and the EC50 was 10 to 100 nM. With `CC1(N)CCN(c2c(-c3ccnc(N)c3)cncc2-c2nc3cccc(F)c3[nH]2)C1` (centres unmarked) [Compound 2-15, 4-(3-amino-3-methylpyrrolidin-1-yl)-5-(4-fluoro-1H-1,3-benzodiazol-2-yl)-[3,4′-bipyridin]-2′-amine] the EC50 was 10 to 100 nM. In the case of `Cc1cccc2nc(-c3cncc(-c4cc(F)c(F)c(C(=O)O)c4)c3N3CCC(C)(N)C3)[nH]c12` (centres unmarked) [Compound 2-126, 5-[4-(3-amino-3-methylpyrrolidin-1-yl)-5-(4-methyl-1H-1,3-benzodiazol-2-yl)pyridin-3-yl]-2,3-difluorobenzoic acid], the EC50 is reported as > 1000 nM. For `C[C@]1(N)CCN(c2c(-c3ccc(F)c(C#N)c3)cncc2-c2nc3c(C#N)ccnc3[nH]2)C1` [Compound 2-176, 2-{4-[(3S)-3-amino-3-methylpyrrolidin-1-yl]-5-(3-cyano-4-fluorophenyl)pyridin-3-yl}-1H-imidazo[4,5-b]pyridine-7-carbonitrile], the EC50 was < 10 nM. With `N#Cc1cc(F)cc(-c2cncc(-c3nc4cc(F)cc(F)c4[nH]3)c2N2CC(CN)C2)c1` [Compound 1-34, 3-{4-[3-(aminomethyl)azetidin-1-yl]-5-(4,6-difluoro-1H-1,3-benzodiazol-2-yl)pyridin-3-yl}-5-fluorobenzonitrile] the EC50 was < 10 nM. With `C#Cc1cccc2[nH]c(-c3cncc(-c4cccc(C#N)c4)c3N3CC[C@H](N)C3)nc12` [Compound 2-84, 3-{4-[(3S)-3-Aminopyrrolidin-1-yl]-5-(4-ethynyl-1H-1,3-benzodiazol-2-yl)pyridin-3-yl}benzonitrile] the EC50 was < 10 nM. For `Cn1c(-c2cncc(-c3ccnc(C#N)c3)c2N2CC[C@](C)(N)C2)nc2c(F)cccc21` [Compound 2-150, 4-[(3S)-3-amino-3-methylpyrrolidin-1-yl]-5-(4-fluoro-1-methyl-1H-1,3-benzodiazol-2-yl)-[3,4′-bipyridine]-2′-carbonitrile], the EC50 was < 10 nM. With `NCC1CN(c2c(-c3cc(F)c(F)c(F)c3)cncc2-c2nc3cc(F)cc(F)c3[nH]2)C1` [Compound 1-48, 1-{1-[3-(4,6-difluoro-1H-1,3-benzodiazol-2-yl)-5-(3,4,5-trifluorophenyl)pyridin-4-yl]azetidin-3-yl}methanamine] the EC50 was < 10 nM. `CS(=O)(=O)c1cccc(-c2cncc(-c3nc4cccc(F)c4[nH]3)c2N2CC[C@H](N)C2)c1` [Compound 2-58, (3S)-1-[3-(4-fluoro-1H-1,3-benzodiazol-2-yl)-5-(3-methanesulfonylphenyl)pyridin-4-yl]pyrrolidin-3-amine] showed an EC50 of 10 to 100 nM. With `Cc1cc(-c2cncc(-c3nc4cc(F)cc(F)c4[nH]3)c2N2CC(CN)C2)ccc1F` [Compound 1-47, 1-{1-[3-(4,6-difluoro-1H-1,3-benzodiazol-2-yl)-5-(4-fluoro-3-methylphenyl)pyridin-4-yl]azetidin-3-yl}methanamine] the EC50 was < 10 nM. `COc1cc(F)cc2nc(-c3cncc(-c4cc(C)cc(F)c4)c3N3CC(CN)C3)[nH]c12` [Compound 1-15, 1-{1-[3-(6-fluoro-4-methoxy-1H-1,3-benzodiazol-2-yl)-5-(3-fluoro-5-methylphenyl)pyridin-4-yl]azetidin-3-yl}methanamine] showed an EC50 of 10 to 100 nM. `CC(N)C1CN(c2c(-c3nc4cc(F)cc(F)c4[nH]3)cncc2-c2cccc(F)c2Cl)C1` (centres unmarked) [Compound 1-74, 1-{1-[3-(2-chloro-3-fluorophenyl)-5-(4,6-difluoro-1H-1,3-benzodiazol-2-yl)pyridin-4-yl]azetidin-3-yl}ethan-1-amine] was tested, and the EC50 was < 10 nM. For `CCOc1ccc(-c2cncc(-c3nc4c(F)cc(F)cc4[nH]3)c2N2CC(C(C)N)C2)cc1F` (centres unmarked) [Compound 1-72, 1-{1-[3-(4,6-difluoro-1H-1,3-benzodiazol-2-yl)-5-(4-ethoxy-3-fluorophenyl)pyridin-4-yl]azetidin-3-yl}ethan-1-amine], the EC50 was 10 to 100 nM. `Cc1cccc2nc(-c3cncc(-c4cccc(C(N)=O)c4)c3N3CC[C@H](N)C3)[nH]c12` [Compound 2-97, 3-{4-[(3S)-3-aminopyrrolidin-1-yl]-5-(4-methyl-1H-1,3-benzodiazol-2-yl)pyridin-3-yl}benzamide] was tested, and the EC50 was < 10 nM. Molecule `Cc1cccc2nc(-c3cncc(-c4cc(F)cc(C#N)c4)c3N3CC[C@](N)(CO)C3)[nH]c12` [Compound 2-136, 3-{4-[(3R)-3-amino-3-(hydroxymethyl)pyrrolidin-1-yl]-5-(4-methyl-1H-1,3-benzodiazol-2-yl)pyridin-3-yl}-5-fluorobenzonitrile] has an EC50 of 10 to 100 nM. With `Cc1ccc(F)c2[nH]c(-c3cncc(-c4ccnc(C(N)=O)c4)c3N3CC[C@H](N)C3)nc12` [Compound 2-107, 4-[(3S)-3-aminopyrrolidin-1-yl]-5-(7-fluoro-4-methyl-1H-1,3-benzodiazol-2-yl)-[3,4′-bipyridine]-2′-carboxamide] the EC50 was > 1000 nM. For `Cc1cccc2c1nc(-c1cncc(-c3ccnc(C#N)c3)c1N1CC[C@](C)(N)C1)n2C` [Compound 2-152, 4-[(3S)-3-amino-3-methylpyrrolidin-1-yl]-5-(1,4-dimethyl-1H-1,3-benzodiazol-2-yl)-[3,4′-bipyridine]-2′-carbonitrile], the EC50 was < 10 nM. Molecule `CC1(N)CCN(c2c(-c3cccc(-n4ccnc4)c3)cncc2-c2nc3cccc(F)c3[nH]2)C1` (centres unmarked) [Compound 2-53, 1-[3-(4-fluoro-1H-1,3-benzodiazol-2-yl)-5-[3-(1H-imidazol-1-yl)phenyl]pyridin-4-yl]-3-methylpyrrolidin-3-amine] has an EC50 of 10 to 100 nM. With `N#Cc1cc(-c2cncc(-c3nc4cccc(Cl)c4[nH]3)c2N2CC[C@H](N)C2)ccn1` [Compound 2-161, 4-[(3S)-3-aminopyrrolidin-1-yl]-5-(4-chloro-1H-1,3-benzodiazol-2-yl)-[3,4′-bipyridine]-2′-carbonitrile] the EC50 was < 10 nM. For `Cc1cccc2nc(-c3cncc(-c4ccc(Cl)c(C#N)c4)c3N3CC[C@H](N)C3)[nH]c12` [Compound 2-98, 5-{4-[(3S)-3-aminopyrrolidin-1-yl]-5-(4-methyl-1H-1,3-benzodiazol-2-yl)pyridin-3-yl}-2-chlorobenzonitrile], the EC50 was < 10 nM. For `N#Cc1cccc(-c2cncc(-c3nc4c(F)cccc4[nH]3)c2N2C[C@@H](N)[C@H](C(N)=O)C2)c1` (racemic) [Compound 2-69, trans-4-amino-1-[3-(3-cyanophenyl)-5-(4-fluoro-1H-1,3-benzodiazol-2-yl)pyridin-4-yl]pyrrolidine-3-carboxamide], the EC50 was > 1000 nM. `CC(N)C1CN(c2c(-c3cc(F)cc(C(F)(F)F)c3)cncc2-c2nc3c(F)cc(F)cc3[nH]2)C1` (centres unmarked) [Compound 1-63, 1-{1-[3-(4,6-difluoro-1H-1,3-benzodiazol-2-yl)-5-[3-fluoro-5-(trifluoromethyl)phenyl]pyridin-4-yl]azetidin-3-yl}ethan-1-amine] was tested, and the EC50 was < 10 nM. For `Cc1cccc2nc(-c3cncc(-c4cc(F)cc(C(N)=O)c4)c3N3CCC(C)(N)C3)[nH]c12` (centres unmarked) [Compound 2-118, 3-[4-(3-amino-3-methylpyrrolidin-1-yl)-5-(4-methyl-1H-1,3-benzodiazol-2-yl)pyridin-3-yl]-5-fluorobenzamide], the EC50 was < 10 nM. With `Cc1cc(F)cc(-c2cncc(-c3nc4cc(C#N)cc(F)c4[nH]3)c2N2CC(CN)C2)c1` [Compound 1-16, 2-{4-[3-(aminomethyl)azetidin-1-yl]-5-(3-fluoro-5-methylphenyl)pyridin-3-yl}-4-fluoro-1H-1,3-benzodiazole-6-carbonitrile] the EC50 was 100 to 1000 nM. `Cc1cc(F)cc(-c2cncc(-c3nc4cc(F)c(F)cc4[nH]3)c2N2CC(CN)C2)c1` [Compound 1-13, 1-{1-[3-(5,6-difluoro-1H-1,3-benzodiazol-2-yl)-5-(3-fluoro-5-methylphenyl)pyridin-4-yl]azetidin-3-yl}methanamine] gave an EC50 of 10 to 100 nM. For `Cc1cccc(-c2cncc(-c3nc4cc(F)cc(F)c4[nH]3)c2N2CC(C(C)N)C2)c1F` (centres unmarked) [Compound 1-76, 1-{1-[3-(4,6-difluoro-1H-1,3-benzodiazol-2-yl)-5-(2-fluoro-3-methylphenyl)pyridin-4-yl]azetidin-3-yl}ethan-1-amine], the EC50 was < 10 nM. For `NCC1CN(c2c(-c3nc4cc(F)cc(F)c4[nH]3)cncc2-c2cccc3cc[nH]c23)C1` [Compound 1-36, 1-{1-[3-(4,6-difluoro-1H-1,3-benzodiazol-2-yl)-5-(1H-indol-7-yl)pyridin-4-yl]azetidin-3-yl}methanamine], the EC50 was 10 to 100 nM.
